In one test the target is T1, ALK (Homo sapiens, UniProt Q9UM73).
T1 construct: ALK cytoplasmic domain, corresponding to residues 1060-1620; made in house; host or cells: Sf21 insect cells (baculovirus)
The experiment in a line: Biochemical assay for inhibitors of ALK kinase activity. The text has this: ALK cytoplasmic domain, corresponding to residues 1060-1620 (the numbers of the amino acid residues refer to the Genbank accession number NP 004295.2) was PCR amplified from a human testis cDNA library.
For cloning purposes, the oligonucleotides included attB sites in order to obtain an attB-flanked PCR product suitable for cloning using the Gateway technology (Invitrogen). Furthermore, for purification purposes, forward primer included a PreScission cleavage site (Amersham Biosciences). The resulting PCR product was cloned in the baculovirus expression vector pVL1393 (Invitrogen), Gateway-modified. For expression and purification purposes, a GST tag was added N-terminal to the ALK cytoplasmic domain. Cloning was performed according to the protocols described in the Gateway manual (Invitrogen).
Baculovirus was generated by cotransfecting Sf9 insect cells with expression vector and the viral DNA using the BaculoGold™ transfection kit (Pharmingen).
Recombinant protein was produced by infecting Sf21 insect cells at the density of 1×10^6 cells/mL with 30 mL viral supernatant per billion cells with shaking at 27° C. After 48 hours of infections the cells were recovered, pelleted and frozen at −80° C.
Cells were resuspended in lysis buffer (Tris-HCl 50 mM pH8, NaCl 150 mM, CHAPS 0.2%, DTT 20 mM, glycerol 20%, “Complete” protease inhibitor cocktail (Roche Diagnostics), Na3VO4 1 mM and lysed by liquid extrusion with a Gaulin homogenizer (Niro Soavi Italy). The lysate was cleared by centrifugation at 20000 g for 30 minutes and loaded on a Glutathione Sepharose 4B (Amersham Biosciences) column.
After extensive wash, recombinant protein was eluted with 10 mM Glutathione in 100 mM Tris-HCl pH8, 10% glycerol.
Affinity purified GST-ALK was loaded on a Heparin Sepharose™ FF (Amersham Biosciences) column and eluted with 50 mM NaCl, 25 mM TRIS pH 7.5, 2 mM DTT, 20% glycerol.
The eluted fractions were pooled and dialyzed against 150 mM NaCl, 50 mM Tris-HCl pH 7.4, 2 mM DTT, 20% glycerol.
The in vitro kinase inhibition assay was conducted in the same way as described for IGF-1R. […]

The target in the next test is IGF-1R (Homo sapiens, UniProt P08069). The experiment in a line: Biochemical assay for inhibitors of IGF-1R kinase activity (trans-phosphorylation, Dowex). To be noted: read-out: IGF1R IC50. More on the design: amino acid residues 960-1367 of precursor protein; made in house; host or cells: H5 insect cells (baculovirus; virus generated in Sf21). As to the method:
Human cDNA was used as template for amplification by polymerase chain reaction (PCR) of the predicted cytoplasmic portion of IGF-1R (amino acid residues 960-1367 of precursor protein; see NCBI Entrez Protein Accession #P08069) which includes the entire kinase domain. PCR was conducted using the forward primer sequence 5′-[…]-3′ [SEQ ID NO: 1] and the reverse primer sequence 5′-[…]-3′[SEQ ID NO: 2].
In order to facilitate subsequent cloning steps, both primers comprise a BamHI restriction endonuclease site sequence. This PCR product was cloned in frame using BamHI sticky ends into a transfer vector for the baculovirus expression system, pVL1392 (Pharmingen), previously modified by insertion into the pVL1392 multiple cloning site of sequences encoding Glutathione S-transferase (GST) fusion protein, PreScission protease cleavage site and partial MCS cassette derived from the pGex-6P plasmid (Amersham BioSciences). Insertion of the IGF-1R PCR product described above into the pGex-6P derived BamHI site of the modified pVL1392 vector results in an open reading frame corresponding to the pGEX-6P GST protein and PreScission peptide fused with the human IGF-1R cytoplasmic domain. In order to obtain fusion protein, Sf21 insect cells (Invitrogen) are cotransfected with 2 microg of purified plasmid and 1 microg of virus DNA (BaculoGold™ Transfection Kit, Pharmingen), as described in the Baculovirus Instruction manual (Pharmingen). A first amplification of the virus is performed using 600 microL of cotransfected virus on 6×10^6 Sf21 in a monolayer culture, in 12 mL of medium (TNM-FH Grace's medium—Pharmingen). After 3 days the medium is collected, centrifuged and transferred to a sterile tube. A second amplification is prepared with the same method using 2 mL on 3×10^7 cells, diluted in 40 mL of medium. For the third amplification of virus, 1 mL of supernatant from the second round are used per 3×10^7 cells diluted in 40 mL of medium. […]
The inhibitory activity of putative kinase inhibitors and the potency of selected compounds were determined using a trans-phosphorylation assay. […]

T1 sequence (Q9UM73 1060-1620): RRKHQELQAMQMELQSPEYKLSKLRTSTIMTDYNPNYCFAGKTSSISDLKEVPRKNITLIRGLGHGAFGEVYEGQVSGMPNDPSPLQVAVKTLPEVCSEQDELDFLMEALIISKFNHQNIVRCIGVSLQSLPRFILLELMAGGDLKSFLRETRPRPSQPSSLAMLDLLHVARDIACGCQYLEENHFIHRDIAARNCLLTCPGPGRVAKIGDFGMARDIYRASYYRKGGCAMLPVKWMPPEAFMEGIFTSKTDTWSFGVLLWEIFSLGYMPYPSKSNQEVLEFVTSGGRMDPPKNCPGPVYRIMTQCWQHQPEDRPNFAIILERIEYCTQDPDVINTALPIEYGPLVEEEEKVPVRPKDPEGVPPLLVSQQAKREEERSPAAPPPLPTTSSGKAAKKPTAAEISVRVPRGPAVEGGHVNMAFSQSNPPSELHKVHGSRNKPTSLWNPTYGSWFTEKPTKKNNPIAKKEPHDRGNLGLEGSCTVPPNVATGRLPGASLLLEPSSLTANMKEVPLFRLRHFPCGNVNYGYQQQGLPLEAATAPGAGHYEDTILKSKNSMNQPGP
Sequence of IGF-1R (P08069 960-1367): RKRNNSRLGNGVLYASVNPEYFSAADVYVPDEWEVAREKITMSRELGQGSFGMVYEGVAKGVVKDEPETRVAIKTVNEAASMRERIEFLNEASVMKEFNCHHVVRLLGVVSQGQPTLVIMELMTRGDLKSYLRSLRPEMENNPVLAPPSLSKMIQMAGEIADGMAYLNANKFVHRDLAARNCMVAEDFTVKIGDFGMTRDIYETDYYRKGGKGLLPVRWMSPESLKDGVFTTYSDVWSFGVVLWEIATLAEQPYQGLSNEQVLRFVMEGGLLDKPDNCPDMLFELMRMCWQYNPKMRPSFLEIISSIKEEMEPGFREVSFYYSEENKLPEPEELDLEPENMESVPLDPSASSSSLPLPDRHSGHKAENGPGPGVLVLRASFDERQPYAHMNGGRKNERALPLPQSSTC

Take `CN1CCN(c2ccc(C(=O)Nc3n[nH]c4ccc(S(=O)(=O)c5ccccc5)cc34)cc2)CC1` [Compound 1, N-(5-Benzenesulfonyl-1H-indazol-3-yl)-4-(4-methyl-piperazin-1-yl)-benzamide]: the figures for the IC50 at ALK and at IGF-1R were 340 nM and 850 nM, respectively.

Take `CN1CCN(c2ccc(C(=O)Nc3n[nH]c4ccc(S(=O)(=O)c5ccccc5)cc34)c(NC(=O)c3ccc[nH]3)c2)CC1` [Compound 33, 1H-pyrrole-2-carboxylic acid [2-(5-benzenesulfonyl-1H-indazol-3-ylcarbamoyl)-5-(4-methyl-piperazin-1-yl)-phenyl]amide]: the IC50 at ALK is 34 nM; on IGF-1R it was 36 nM.

Consider `CN1CCN(c2ccc(C(=O)Nc3n[nH]c4ccc(S(=O)(=O)c5ccccc5)cc34)c(NC(=O)[C@@H]3CCCO3)c2)CC1` [Compound 36, (S)-Tetrahydro-furan-2-carboxylic acid [2-(5-benzenesulfonyl-1H-indazol-3-ylcarbamoyl)-5-(4-methyl-piperazin-1-yl)-phenyl]-amide], for which the IC50 at ALK stood at 170 nM; on IGF-1R it was 230 nM.

(Values after patent US8114865B2, “Indazole derivatives as kinase inhibitors for the treatment of cancer” (Nerviano Medical Sciences S.R.L., priority 2006, dated 2012).)
